Data taken from patent US7713968B2, “Substituted arylcyclopentenes as therapeutic agents” (Allergan, Inc., priority 2008, dated 2010).

System: lashes and adjacent hairs of the treated eye
Assay: Observation of lashes in glaucoma patients treated with bimatoprost in one eye
Assay type: in vivo
Conditions: glaucoma patient treated in only one eye
Excerpt: In the course of treating patients having glaucoma, treatment may only be appropriate in one eye. […] The lash appearance on the lids of the treated eyes would have appeared quite attractive if it represented a bilateral phenomenon. As a result of its asymmetric nature, the long lashes on one side could be construed as disturbing from a cosmetic standpoint. A systemic examination was preformed as a result of the asymmetric phenomenon. It soon became apparent that this altered appearance was not an isolated finding. […] Definite differences could be identified to varying degrees in the lashes and adjacent hairs of all patients who were taking the drug on a unilateral basis for longer than 6 months.
The changes in the lashes were apparent on gross inspection in several patients once attention was focused on the issue. In those with light colored hair and lashes, the differences were only seen easily with the aid of the high magnification and lighting capabilities of the slit lamp biomicroscope. In the course of glaucoma follow-up examination, attention is generally immediately focused on the eye itself. As a result of the high power magnification needed only one eye is seen at a time and the eye is seen at a high enough power that the lashes are not in focus. […]

## CCNC(=O)CCC/C=C\C[C@@H]1[C@@H](/C=C/[C@@H](O)CCc2ccccc2)[C@H](O)C[C@@H]1O [bimatoprost]
  lashes in the treated eye compared with the non-treated eye: longer, thicker, and fuller
